What was measured:
Experiment in all cases: relative viability (nuclei count vs DMSO), 5 days (fraction); higher = more cells survive
[1] = compound: C/C(=N\NC(=S)N1CCC1)/C2=CC=CC=N2 + CC(C)C[C@H](NC(=O)[C@H](Cc1ccccc1)NC(=O)c1cnccn1)B(O)O [Bortezomib] (partner 0.002 µM)
In short: (§1)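 Relative viability divides the nuclei count in treated wells by that in vehicle wells. Lung cancer cell lines were seeded in 1536-well plates, dosed by pin tool the next day, and fixed and stained after 5 days in one step with final 0.05% Triton X-100, 1% formaldehyde and 1 ug/ml Hoechst. Dosing was a single drug or a fixed anchor-drug dose plus five library-drug doses (not always all listed) in √10 steps, and values are medians of duplicate plates imaged at 4×.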

[2] = compound: C/C(=N\NC(=S)N1CCC1)/C2=CC=CC=N2 + NC(=O)Nc1cc(-c2cccc(F)c2)sc1C(=O)N[C@H]1CCCNC1 [AZD7762] (partner 0.2 µM)
In short: as §1

[3] = compound: C/C(=N\NC(=S)N1CCC1)/C2=CC=CC=N2 + Cc1cc(Nc2cc(N3CCN(C)CC3)nc(Sc3ccc(NC(=O)C4CC4)cc3)n2)n[nH]1 [Tozasertib] (partner 0.1 µM)
In short: as §1

[4] = compound: C/C(=N\NC(=S)N1CCC1)/C2=CC=CC=N2 + Nc1ncn([C@H]2C[C@H](O)[C@@H](CO)O2)c(=O)n1 [Decitabine] (partner 2 µM)
In short: as §1

Cell Line: NCI-H2085
- relative viability ([1]; first compound 0.05 µM): 0.33
- relative viability ([1]; first compound 0.1581 µM): 0.298
- relative viability ([1]; first compound 0.5 µM): 0.323
- relative viability ([1]; first compound 1.581 µM): 0.269
- relative viability ([1]; first compound 5 µM): 0.262
- relative viability ([2]; first compound 0.05 µM): 0.263
- relative viability ([2]; first compound 0.1581 µM): 0.278
- relative viability ([2]; first compound 0.5 µM): 0.293
- relative viability ([2]; first compound 1.581 µM): 0.223
- relative viability ([2]; first compound 5 µM): 0.271
- relative viability ([3]; first compound 0.05 µM): 0.372
- relative viability ([3]; first compound 0.1581 µM): 0.366
- relative viability ([3]; first compound 0.5 µM): 0.388
- relative viability ([3]; first compound 1.581 µM): 0.315
- relative viability ([3]; first compound 5 µM): 0.315
- relative viability ([4]; first compound 0.05 µM): 0.255
- relative viability ([4]; first compound 0.1581 µM): 0.324
- relative viability ([4]; first compound 0.5 µM): 0.358
- relative viability ([4]; first compound 1.581 µM): 0.309
- relative viability ([4]; first compound 5 µM): 0.376

Cell Line: H3255
- relative viability ([1]; first compound 0.05 µM): 0.227
- relative viability ([1]; first compound 0.1581 µM): 0.276
- relative viability ([1]; first compound 0.5 µM): 0.268
- relative viability ([1]; first compound 1.581 µM): 0.171
- relative viability ([1]; first compound 5 µM): 0.195
- relative viability ([2]; first compound 0.05 µM): 0.302
- relative viability ([2]; first compound 0.1581 µM): 0.308
- relative viability ([2]; first compound 0.5 µM): 0.286
- relative viability ([2]; first compound 1.581 µM): 0.244
- relative viability ([2]; first compound 5 µM): 0.237
- relative viability ([3]; first compound 0.05 µM): 0.331
- relative viability ([3]; first compound 0.1581 µM): 0.167
- relative viability ([3]; first compound 0.5 µM): 0.288
- relative viability ([3]; first compound 1.581 µM): 0.193
- relative viability ([3]; first compound 5 µM): 0.232
- relative viability ([4]; first compound 0.05 µM): 0.211
- relative viability ([4]; first compound 0.1581 µM): 0.231
- relative viability ([4]; first compound 0.5 µM): 0.24
- relative viability ([4]; first compound 1.581 µM): 0.209
- relative viability ([4]; first compound 5 µM): 0.228

Cell Line: NCI-H650
- relative viability ([1]; first compound 0.05 µM): 0.181
- relative viability ([1]; first compound 0.1581 µM): 0.238
- relative viability ([1]; first compound 0.5 µM): 0.199
- relative viability ([1]; first compound 1.581 µM): 0.134
- relative viability ([1]; first compound 5 µM): 0.196
- relative viability ([2]; first compound 0.05 µM): 0.225
- relative viability ([2]; first compound 0.1581 µM): 0.209
- relative viability ([2]; first compound 0.5 µM): 0.199
- relative viability ([2]; first compound 1.581 µM): 0.223
- relative viability ([2]; first compound 5 µM): 0.143
- relative viability ([3]; first compound 0.05 µM): 0.184
- relative viability ([3]; first compound 0.1581 µM): 0.189
- relative viability ([3]; first compound 0.5 µM): 0.185
- relative viability ([3]; first compound 1.581 µM): 0.158
- relative viability ([3]; first compound 5 µM): 0.16
- relative viability ([4]; first compound 0.05 µM): 0.169
- relative viability ([4]; first compound 0.1581 µM): 0.192
- relative viability ([4]; first compound 0.5 µM): 0.187
- relative viability ([4]; first compound 1.581 µM): 0.186
- relative viability ([4]; first compound 5 µM): 0.157

Cell Line: LCLC-103H
- relative viability ([1]; first compound 0.05 µM): 0.294
- relative viability ([1]; first compound 0.1581 µM): 0.353
- relative viability ([1]; first compound 0.5 µM): 0.242
- relative viability ([1]; first compound 1.581 µM): 0.229
- relative viability ([1]; first compound 5 µM): 0.206
- relative viability ([2]; first compound 0.05 µM): 0.272
- relative viability ([2]; first compound 0.1581 µM): 0.219
- relative viability ([2]; first compound 0.5 µM): 0.27
- relative viability ([2]; first compound 1.581 µM): 0.185
- relative viability ([2]; first compound 5 µM): 0.262
- relative viability ([3]; first compound 0.05 µM): 0.244
- relative viability ([3]; first compound 0.1581 µM): 0.175
- relative viability ([3]; first compound 0.5 µM): 0.202
- relative viability ([3]; first compound 1.581 µM): 0.133
- relative viability ([3]; first compound 5 µM): 0.165
- relative viability ([4]; first compound 0.05 µM): 0.346
- relative viability ([4]; first compound 0.1581 µM): 0.684
- relative viability ([4]; first compound 0.5 µM): 0.329
- relative viability ([4]; first compound 1.581 µM): 0.342
- relative viability ([4]; first compound 5 µM): 0.291

Cell Line: LOU-NH91
- relative viability ([1]; first compound 0.05 µM): 0.435
- relative viability ([1]; first compound 0.1581 µM): 0.443
- relative viability ([1]; first compound 0.5 µM): 0.501
- relative viability ([1]; first compound 1.581 µM): 0.37
- relative viability ([1]; first compound 5 µM): 0.387
- relative viability ([2]; first compound 0.05 µM): 0.46
- relative viability ([2]; first compound 0.1581 µM): 0.548
- relative viability ([2]; first compound 0.5 µM): 0.479
- relative viability ([2]; first compound 1.581 µM): 0.294
- relative viability ([2]; first compound 5 µM): 0.428
- relative viability ([3]; first compound 0.05 µM): 0.38
- relative viability ([3]; first compound 0.1581 µM): 0.411
- relative viability ([3]; first compound 0.5 µM): 0.366
- relative viability ([3]; first compound 1.581 µM): 0.313
- relative viability ([3]; first compound 5 µM): 0.367
- relative viability ([4]; first compound 0.05 µM): 0.625
- relative viability ([4]; first compound 0.1581 µM): 0.626
- relative viability ([4]; first compound 0.5 µM): 0.579
- relative viability ([4]; first compound 1.581 µM): 0.462
- relative viability ([4]; first compound 5 µM): 0.495

Cell Line: NCI-H3122
- relative viability ([1]; first compound 0.05 µM): 0.17
- relative viability ([1]; first compound 0.1581 µM): 0.139
- relative viability ([1]; first compound 0.5 µM): 0.222
- relative viability ([1]; first compound 1.581 µM): 0.244
- relative viability ([1]; first compound 5 µM): 0.203
- relative viability ([2]; first compound 0.05 µM): 0.0944
- relative viability ([2]; first compound 0.1581 µM): 0.0773
- relative viability ([2]; first compound 0.5 µM): 0.115
- relative viability ([2]; first compound 1.581 µM): 0.13
- relative viability ([2]; first compound 5 µM): 0.114
- relative viability ([3]; first compound 0.05 µM): 0.0931
- relative viability ([3]; first compound 0.1581 µM): 0.0762
- relative viability ([3]; first compound 0.5 µM): 0.0946
- relative viability ([3]; first compound 1.581 µM): 0.109
- relative viability ([3]; first compound 5 µM): 0.0776
- relative viability ([4]; first compound 0.05 µM): 0.0981
- relative viability ([4]; first compound 0.1581 µM): 0.269
- relative viability ([4]; first compound 0.5 µM): 0.086
- relative viability ([4]; first compound 1.581 µM): 0.127
- relative viability ([4]; first compound 5 µM): 0.136

Cell Line: PC-3 [JPC-3]
- relative viability ([1]; first compound 0.05 µM): 0.377
- relative viability ([1]; first compound 0.1581 µM): 0.318
- relative viability ([1]; first compound 0.5 µM): 0.312
- relative viability ([1]; first compound 1.581 µM): 0.292
- relative viability ([1]; first compound 5 µM): 0.215
- relative viability ([2]; first compound 0.05 µM): 0.317
- relative viability ([2]; first compound 0.1581 µM): 0.384
- relative viability ([2]; first compound 0.5 µM): 0.307
- relative viability ([2]; first compound 1.581 µM): 0.243
- relative viability ([2]; first compound 5 µM): 0.234
- relative viability ([3]; first compound 0.05 µM): 0.612
- relative viability ([3]; first compound 0.1581 µM): 0.474
- relative viability ([3]; first compound 0.5 µM): 0.3
- relative viability ([3]; first compound 1.581 µM): 0.281
- relative viability ([3]; first compound 5 µM): 0.241
- relative viability ([4]; first compound 0.05 µM): 0.534
- relative viability ([4]; first compound 0.1581 µM): 0.526
- relative viability ([4]; first compound 0.5 µM): 0.418
- relative viability ([4]; first compound 1.581 µM): 0.344
- relative viability ([4]; first compound 5 µM): 0.324

Cell Line: NCI-H1651
- relative viability ([1]; first compound 0.05 µM): 0.167
- relative viability ([1]; first compound 0.1581 µM): 0.149
- relative viability ([1]; first compound 0.5 µM): 0.151
- relative viability ([1]; first compound 1.581 µM): 0.15
- relative viability ([1]; first compound 5 µM): 0.137
- relative viability ([2]; first compound 0.05 µM): 0.0886
- relative viability ([2]; first compound 0.1581 µM): 0.101
- relative viability ([2]; first compound 0.5 µM): 0.0929
- relative viability ([2]; first compound 1.581 µM): 0.0496
- relative viability ([2]; first compound 5 µM): 0.0554
- relative viability ([3]; first compound 0.05 µM): 0.136
- relative viability ([3]; first compound 0.1581 µM): 0.114
- relative viability ([3]; first compound 0.5 µM): 0.108
- relative viability ([3]; first compound 1.581 µM): 0.0885
- relative viability ([3]; first compound 5 µM): 0.0771
- relative viability ([4]; first compound 0.05 µM): 0.127
- relative viability ([4]; first compound 0.1581 µM): 0.114
- relative viability ([4]; first compound 0.5 µM): 0.103
- relative viability ([4]; first compound 1.581 µM): 0.0618
- relative viability ([4]; first compound 5 µM): 0.0864

Cell Line: NCI-H2087
- relative viability ([1]; first compound 0.05 µM): 0.219
- relative viability ([1]; first compound 0.1581 µM): 0.223
- relative viability ([1]; first compound 0.5 µM): 0.309
- relative viability ([1]; first compound 1.581 µM): 0.132
- relative viability ([1]; first compound 5 µM): 0.125
- relative viability ([2]; first compound 0.05 µM): 0.193
- relative viability ([2]; first compound 0.1581 µM): 0.16
- relative viability ([2]; first compound 0.5 µM): 0.249
- relative viability ([2]; first compound 1.581 µM): 0.118
- relative viability ([2]; first compound 5 µM): 0.15
- relative viability ([3]; first compound 0.05 µM): 0.0992
- relative viability ([3]; first compound 0.1581 µM): 0.0962
- relative viability ([3]; first compound 0.5 µM): 0.114
- relative viability ([3]; first compound 1.581 µM): 0.0938
- relative viability ([3]; first compound 5 µM): 0.0874
- relative viability ([4]; first compound 0.05 µM): 0.136
- relative viability ([4]; first compound 0.1581 µM): 0.0973
- relative viability ([4]; first compound 0.5 µM): 0.107
- relative viability ([4]; first compound 1.581 µM): 0.103
- relative viability ([4]; first compound 5 µM): 0.0802

From the supplement of paper PMC10307832
